Assay results reported in paper PMC6422671 (British Journal of Clinical Pharmacology, 2019).

Assay: Clinical laboratory findings: haematology; data mean (standard deviation)
Format: in vivo, healthy men
From the text: Data are mean (standard deviation).

C[C@@H](N)c1cc(Cl)ccc1Cn1c(=S)[nH]c(=O)c2[nH]ccc21 [AZD4831]
Basophils (5 mg fasted, 24 h): 0.03 (0.01) 10^9 L^–1 | Eosinophils (5 mg fasted, 24 h): 0.25 (0.12) 10^9 L^–1 | Erythrocyte MCH (5 mg fasted, 24 h): 29.8 (1.2) pg | Erythrocyte MCH concentration (5 mg fasted, 24 h): 340 (5) g L^–1 | Erythrocyte MCV (5 mg fasted, 24 h): 87.5 (3.3) fL | Erythrocytes (5 mg fasted, 24 h): 4.90 (0.28) 10^12 L^–1 | Haematocrit (5 mg fasted, 24 h): 0.43 (0.02) ratio | Haemoglobin (5 mg fasted, 24 h): 146 (6) g L^–1 | Leukocytes (5 mg fasted, 24 h): 5.43 (0.71) 10^9 L^–1 | Lymphocytes (5 mg fasted, 24 h): 1.62 (0.37) 10^9 L^–1 | Monocytes (5 mg fasted, 24 h): 0.37 (0.06) 10^9 L^–1 | Neutrophils (5 mg fasted, 24 h): 3.07 (0.47) 10^9 L^–1 | Platelets (5 mg fasted, 24 h): 246 (44) 10^9 L^–1 | Reticulocytes (5 mg fasted, 24 h): 76.9 (15.3) 10^9 L^–1 | Basophils (5 mg fasted, 48 h): 0.04 (0.02) 10^9 L^–1 | Eosinophils (5 mg fasted, 48 h): 0.23 (0.10) 10^9 L^–1 | Erythrocyte MCH (5 mg fasted, 48 h): 29.6 (1.0) pg | Erythrocyte MCH concentration (5 mg fasted, 48 h): 338 (6) g L^–1 | Erythrocyte MCV (5 mg fasted, 48 h): 87.7 (3.1) fL | Erythrocytes (5 mg fasted, 48 h): 4.88 (0.26) 10^12 L^–1 | Haematocrit (5 mg fasted, 48 h): 0.43 (0.02) ratio | Haemoglobin (5 mg fasted, 48 h): 145 (7) g L^–1 | Leukocytes (5 mg fasted, 48 h): 5.74 (1.20) 10^9 L^–1 | Lymphocytes (5 mg fasted, 48 h): 1.60 (0.38) 10^9 L^–1 | Monocytes (5 mg fasted, 48 h): 0.38 (0.06) 10^9 L^–1 | Neutrophils (5 mg fasted, 48 h): 3.38 (1.02) 10^9 L^–1 | Platelets (5 mg fasted, 48 h): 240 (50) 10^9 L^–1 | Reticulocytes (5 mg fasted, 48 h): 84.4 (20.3) 10^9 L^–1 | Basophils (5 mg fasted, follow up): 0.04 (0.01) 10^9 L^–1 | Eosinophils (5 mg fasted, follow up): 0.26 (0.12) 10^9 L^–1 | Erythrocyte MCH (5 mg fasted, follow up): 29.5 (1.1) pg | Erythrocyte MCH concentration (5 mg fasted, follow up): 334 (5) g L^–1 | Erythrocyte MCV (5 mg fasted, follow up): 88.2 (3.1) fL | Erythrocytes (5 mg fasted, follow up): 4.98 (0.36) 10^12 L^–1 | Haematocrit (5 mg fasted, follow up): 0.44 (0.02) ratio | Haemoglobin (5 mg fasted, follow up): 147 (8) g L^–1 | Leukocytes (5 mg fasted, follow up): 5.94 (1.03) 10^9 L^–1 | Lymphocytes (5 mg fasted, follow up): 1.47 (0.34) 10^9 L^–1 | Monocytes (5 mg fasted, follow up): 0.45 (0.15) 10^9 L^–1 | Neutrophils (5 mg fasted, follow up): 3.59 (0.73) 10^9 L^–1 | Platelets (5 mg fasted, follow up): 249 (38) 10^9 L^–1 | Reticulocytes (5 mg fasted, follow up): 91.6 (15.7) 10^9 L^–1 | Basophils (15 mg fasted, 24 h): 0.04 (0.01) 10^9 L^–1 | Eosinophils (15 mg fasted, 24 h): 0.21 (0.07) 10^9 L^–1 | Erythrocyte MCH (15 mg fasted, 24 h): 29.6 (0.7) pg | Erythrocyte MCH concentration (15 mg fasted, 24 h): 341 (2) g L^–1 | Erythrocyte MCV (15 mg fasted, 24 h): 86.8 (2.0) fL | Erythrocytes (15 mg fasted, 24 h): 5.08 (0.27) 10^12 L^–1 | Haematocrit (15 mg fasted, 24 h): 0.44 (0.03) ratio | Haemoglobin (15 mg fasted, 24 h): 150 (9) g L^–1 | Leukocytes (15 mg fasted, 24 h): 5.94 (1.90) 10^9 L^–1 | Lymphocytes (15 mg fasted, 24 h): 1.75 (0.55) 10^9 L^–1 | Monocytes (15 mg fasted, 24 h): 0.46 (0.17) 10^9 L^–1 | Neutrophils (15 mg fasted, 24 h): 3.37 (1.36) 10^9 L^–1 | Platelets (15 mg fasted, 24 h): 193 (28) 10^9 L^–1 | Reticulocytes (15 mg fasted, 24 h): 77.2 (18.6) 10^9 L^–1 | Basophils (15 mg fasted, 48 h): 0.04 (0.01) 10^9 L^–1 | Eosinophils (15 mg fasted, 48 h): 0.22 (0.07) 10^9 L^–1 | Erythrocyte MCH (15 mg fasted, 48 h): 29.5 (1.1) pg | Erythrocyte MCH concentration (15 mg fasted, 48 h): 340 (7) g L^–1 | Erythrocyte MCV (15 mg fasted, 48 h): 86.9 (2.9) fL | Erythrocytes (15 mg fasted, 48 h): 5.03 (0.23) 10^12 L^–1 | Haematocrit (15 mg fasted, 48 h): 0.44 (0.02) ratio | Haemoglobin (15 mg fasted, 48 h): 148 (8) g L^–1 | Leukocytes (15 mg fasted, 48 h): 6.08 (1.88) 10^9 L^–1 | Lymphocytes (15 mg fasted, 48 h): 1.71 (0.49) 10^9 L^–1 | Monocytes (15 mg fasted, 48 h): 0.52 (0.21) 10^9 L^–1 | Neutrophils (15 mg fasted, 48 h): 3.47 (1.39) 10^9 L^–1 | Platelets (15 mg fasted, 48 h): 204 (25) 10^9 L^–1 | Reticulocytes (15 mg fasted, 48 h): 78.1 (24.5) 10^9 L^–1 | Basophils (15 mg fasted, follow up): 0.04 (0.02) 10^9 L^–1 | Eosinophils (15 mg fasted, follow up): 0.22 (0.08) 10^9 L^–1 | Erythrocyte MCH (15 mg fasted, follow up): 29.1 (1.0) pg | Erythrocyte MCH concentration (15 mg fasted, follow up): 334 (2) g L^–1 | Erythrocyte MCV (15 mg fasted, follow up): 87.3 (2.5) fL | Erythrocytes (15 mg fasted, follow up): 5.06 (0.37) 10^12 L^–1 | Haematocrit (15 mg fasted, follow up): 0.44 (0.03) ratio | Haemoglobin (15 mg fasted, follow up): 147 (10) g L^–1 | Leukocytes (15 mg fasted, follow up): 5.81 (1.43) 10^9 L^–1 | Lymphocytes (15 mg fasted, follow up): 1.63 (0.38) 10^9 L^–1 | Monocytes (15 mg fasted, follow up): 0.49 (0.07) 10^9 L^–1 | Neutrophils (15 mg fasted, follow up): 3.32 (1.20) 10^9 L^–1 | Platelets (15 mg fasted, follow up): 221 (33) 10^9 L^–1 | Reticulocytes (15 mg fasted, follow up): 89.9 (32.9) 10^9 L^–1 | Basophils (45 mg fasted, 24 h): 0.04 (0.02) 10^9 L^–1 | Eosinophils (45 mg fasted, 24 h): 0.20 (0.12) 10^9 L^–1 | Erythrocyte MCH (45 mg fasted, 24 h): 28.4 (2.1) pg | Erythrocyte MCH concentration (45 mg fasted, 24 h): 335 (8) g L^–1 | Erythrocyte MCV (45 mg fasted, 24 h): 84.8 (5.8) fL | Erythrocytes (45 mg fasted, 24 h): 5.01 (0.18) 10^12 L^–1 | Haematocrit (45 mg fasted, 24 h): 0.42 (0.03) ratio | Haemoglobin (45 mg fasted, 24 h): 142 (9) g L^–1 | Leukocytes (45 mg fasted, 24 h): 5.28 (1.15) 10^9 L^–1 | Lymphocytes (45 mg fasted, 24 h): 1.74 (0.42) 10^9 L^–1 | Monocytes (45 mg fasted, 24 h): 0.37 (0.13) 10^9 L^–1 | Neutrophils (45 mg fasted, 24 h): 2.83 (0.90) 10^9 L^–1 | Platelets (45 mg fasted, 24 h): 220 (39) 10^9 L^–1 | Reticulocytes (45 mg fasted, 24 h): 69.8 (16.4) 10^9 L^–1 | Basophils (45 mg fasted, 48 h): 0.04 (0.02) 10^9 L^–1 | Eosinophils (45 mg fasted, 48 h): 0.21 (0.10) 10^9 L^–1 | Erythrocyte MCH (45 mg fasted, 48 h): 28.4 (2.3) pg | Erythrocyte MCH concentration (45 mg fasted, 48 h): 335 (15) g L^–1 | Erythrocyte MCV (45 mg fasted, 48 h): 84.9 (5.9) fL | Erythrocytes (45 mg fasted, 48 h): 5.02 (0.33) 10^12 L^–1 | Haematocrit (45 mg fasted, 48 h): 0.43 (0.03) ratio | Haemoglobin (45 mg fasted, 48 h): 142 (8) g L^–1 | Leukocytes (45 mg fasted, 48 h): 5.69 (1.06) 10^9 L^–1 | Lymphocytes (45 mg fasted, 48 h): 1.79 (0.36) 10^9 L^–1 | Monocytes (45 mg fasted, 48 h): 0.38 (0.10) 10^9 L^–1 | Neutrophils (45 mg fasted, 48 h): 3.16 (0.95) 10^9 L^–1 | Platelets (45 mg fasted, 48 h): 222 (44) 10^9 L^–1 | Reticulocytes (45 mg fasted, 48 h): 77.3 (19.5) 10^9 L^–1 | Basophils (45 mg fasted, follow up): 0.05 (0.02) 10^9 L^–1 | Eosinophils (45 mg fasted, follow up): 0.20 (0.15) 10^9 L^–1 | Erythrocyte MCH (45 mg fasted, follow up): 28.3 (2.3) pg | Erythrocyte MCH concentration (45 mg fasted, follow up): 333 (10) g L^–1 | Erythrocyte MCV (45 mg fasted, follow up): 85.0 (5.8) fL | Erythrocytes (45 mg fasted, follow up): 5.08 (0.35) 10^12 L^–1 | Haematocrit (45 mg fasted, follow up): 0.43 (0.02) ratio | Haemoglobin (45 mg fasted, follow up): 143 (7) g L^–1 | Leukocytes (45 mg fasted, follow up): 5.88 (1.09) 10^9 L^–1 | Lymphocytes (45 mg fasted, follow up): 1.61 (0.45) 10^9 L^–1 | Monocytes (45 mg fasted, follow up): 0.45 (0.13) 10^9 L^–1 | Neutrophils (45 mg fasted, follow up): 3.45 (1.25) 10^9 L^–1 | Platelets (45 mg fasted, follow up): 245 (38) 10^9 L^–1 | Reticulocytes (45 mg fasted, follow up): 79.1 (19.3) 10^9 L^–1
